Measurements from ChEMBL document CHEMBL1128368, “Synthesis and serotonergic activity of N,N-dimethyl-2-[5-(1,2,4-triazol-1-ylmethyl)-1H-indol-3-yl]ethylamine and analogues: potent agonists for 5-HT1D receptors” (J Med Chem, 1995).

Experiments:
[1] = target: T1, 5-HT2C receptors (Sus scrofa, UniProt K7GSR7); assay: Binding activity against 5-hydroxytryptamine 2C receptor from pig cortex membrane using [3H]mesulergine as radioligand.
[2] = species on record: Oryctolagus cuniculus; assay: Functional activity was determined by the contraction of New Zealand white rabbit saphenous vein.
[3] = target: T2, Serotonin 3 (5-HT3) receptor (Rattus norvegicus, UniProt P35563+Q9JJ16); assay: Inhibition of [3H]-Q-ICS 205-930 binding to rat cortex homogenate 5-hydroxytryptamine 3 receptor
T2 sequence (P35563 whole entry): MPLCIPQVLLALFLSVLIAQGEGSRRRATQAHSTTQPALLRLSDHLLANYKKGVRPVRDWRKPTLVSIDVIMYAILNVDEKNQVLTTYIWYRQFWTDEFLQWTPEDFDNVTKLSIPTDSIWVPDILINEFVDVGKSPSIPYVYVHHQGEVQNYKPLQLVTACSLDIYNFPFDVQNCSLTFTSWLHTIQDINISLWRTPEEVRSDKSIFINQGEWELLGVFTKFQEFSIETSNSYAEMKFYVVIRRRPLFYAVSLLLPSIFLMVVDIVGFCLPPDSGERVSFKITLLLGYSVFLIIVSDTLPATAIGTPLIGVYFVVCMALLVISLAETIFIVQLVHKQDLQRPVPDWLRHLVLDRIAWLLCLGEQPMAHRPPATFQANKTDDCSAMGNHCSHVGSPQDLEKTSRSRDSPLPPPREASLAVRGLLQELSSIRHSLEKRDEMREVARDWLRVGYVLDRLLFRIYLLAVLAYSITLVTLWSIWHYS
T2 sequence (Q9JJ16 whole entry): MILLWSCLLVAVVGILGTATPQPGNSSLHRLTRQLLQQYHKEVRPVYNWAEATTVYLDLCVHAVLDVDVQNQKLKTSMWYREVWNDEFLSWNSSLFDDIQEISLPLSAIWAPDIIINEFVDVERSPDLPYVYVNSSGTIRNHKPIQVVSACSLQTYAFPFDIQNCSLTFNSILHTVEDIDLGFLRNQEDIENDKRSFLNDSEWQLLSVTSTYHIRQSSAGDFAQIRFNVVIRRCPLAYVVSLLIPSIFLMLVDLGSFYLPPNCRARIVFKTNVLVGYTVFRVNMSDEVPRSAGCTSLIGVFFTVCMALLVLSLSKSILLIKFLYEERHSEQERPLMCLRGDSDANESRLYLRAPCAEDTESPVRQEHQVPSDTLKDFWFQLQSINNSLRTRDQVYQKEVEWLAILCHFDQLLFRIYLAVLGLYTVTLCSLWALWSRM

[4] = target: T1, 5-HT2C receptors; assay: Binding activity against 5-hydroxytryptamine 2C receptor from pig cortex membrane using [3H]mesulergine as radioligand; NA Not Available
[5] = Partition coefficient (logD7.4); conditions: octanol/water, pH 7.4
[6] = target: Serotonin 3 (5-HT3) receptor; assay: Binding activity against 5-hydroxytryptamine 1A receptor from human brain cortex using [3H]8-OH-DPAT[…] radioligand.
[7] = target: T2, Serotonin 3 (5-HT3) receptor; assay: Binding activity radioligand.; assay type: protein-complex assay
[8] = target: 5-hydroxytryptamine receptor 1D (Sus scrofa, UniProt P79400); assay: Binding activity against 5-hydroxytryptamine 1D receptor from pig caudate membrane using [3H]5-HT as radioligand
[9] = Binding activity against 5-hydroxytryptamine 2C receptor from pig cortex membrane using [3H]mesulergine as radioligand.

5-hydroxytryptamine receptor 1D, sequence (P79400 whole entry): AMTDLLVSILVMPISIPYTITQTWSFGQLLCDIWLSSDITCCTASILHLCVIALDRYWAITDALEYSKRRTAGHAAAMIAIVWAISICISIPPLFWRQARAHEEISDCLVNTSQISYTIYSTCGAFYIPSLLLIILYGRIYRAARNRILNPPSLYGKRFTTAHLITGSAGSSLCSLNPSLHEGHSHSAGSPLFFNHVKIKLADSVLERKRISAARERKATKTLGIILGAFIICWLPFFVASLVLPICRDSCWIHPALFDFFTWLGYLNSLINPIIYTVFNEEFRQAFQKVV

In the case of `CN(C)CCc1c[nH]c2ccc(Cc3nnn[nH]3)cc12`, the IC50 [1] is reported as over 10000 nM.
`CCn1nnnc1Cc1ccc2[nH]cc(CCN(C)C)c2c1` gave an IC50 [1] of over 10000 nM, an EC50 [2] of 398 nM and an IC50 [3] of over 10000 nM.
With `CN(C)CCc1c[nH]c2ccc(Cc3nncn3C)cc12` the IC50 [1] was over 10000 nM.
With `CN(C)CCc1c[nH]c2ccc(Cc3nnnn3C)cc12` the IC50 [1] was over 10000 nM, the EC50 [2] was 251 nM and the IC50 [3] was 5010 nM.
In the case of `CN(C)CCc1c[nH]c2ccc(Cn3cnnn3)cc12`, the IC50 [1] is reported as 5010 nM, the EC50 [2] is reported as 200 nM and the IC50 [3] is reported as 1260 nM.
`CN(C)CCc1c[nH]c2ccc(Cn3ccnn3)cc12` gave an EC50 [2] of 1000 nM and an IC50 [4] of 6310 nM.
Work on `CN(C)CCc1c[nH]c2ccc(Cn3ccnc3)cc12` yielded an IC50 [1] of 3160 nM, an EC50 [2] of 501 nM and an IC50 [3] of 1260 nM. It also gave a logD [5] of -0.53.
Work on `CN(C)CCc1c[nH]c2ccc(Cn3cncn3)cc12` [RIZATRIPTAN] yielded a pIC50 [6] of under 5, an IC50 [1] of 6310 nM and an EC50 [2] of 251 nM. It also gave an IC50 [7] of 3980 nM and a logD [5] of -0.74.
Molecule `CCn1nnc(Cc2ccc3[nH]cc(CCN(C)C)c3c2)n1` has an IC50 [1] of 1580 nM, an EC50 [2] of 631 nM and an IC50 [3] of 2510 nM.
`CN(C)CCc1c[nH]c2ccc(Cc3nnn(C)n3)cc12` showed an IC50 [1] of 2510 nM, an EC50 [2] of 1000 nM and an IC50 [3] of 2510 nM.
With `CN(C)CCc1c[nH]c2ccc(Cn3nccn3)cc12` the logD [5] was -0.2 and the IC50 [8] was 251 nM.
In the case of `Cc1nccn1-c1ccc2[nH]cc(CCN(C)C)c2c1`, the IC50 [1] is reported as over 10000 nM, the EC50 [2] is reported as 158 nM and the IC50 [3] is reported as 3160 nM. The logD [5] was -0.13.
With `CN(C)CCc1c[nH]c2ccc(-n3cncn3)cc12` the IC50 [1] was 10000 nM, the EC50 [2] was 63.1 nM and the IC50 [3] was 10000 nM.
Molecule `Cc1nccn1Cc1ccc2[nH]cc(CCN(C)C)c2c1` has an IC50 [1] of 7940 nM, an EC50 [2] of 631 nM and an IC50 [3] of 1580 nM.
In the case of `CN(C)CCc1c[nH]c2ccc(Cc3nc(N)no3)cc12`, the IC50 [1] is reported as 398 nM and the pIC50 [9] is reported as 5.9.
Molecule `CN(C)CCc1c[nH]c2ccc(Cc3ncn(C)n3)cc12` has a logD [5] of -1.01 and an IC50 [8] of 200 nM.
With `CN(C)CCc1c[nH]c2ccc(Cc3ncnn3C)cc12` the IC50 [1] was 3980 nM, the EC50 [2] was 631 nM and the IC50 [3] was 10000 nM. The logD [5] was -0.75.
`CN(C)CCc1c[nH]c2ccc(Cn3ncnn3)cc12` showed an IC50 [1] of 2000 nM, an EC50 [2] of 200 nM and an IC50 [3] of 3160 nM. It also gave a logD [5] of -0.34.
